Measurements taken from the NIST ThermoML archive (doi:10.1016/j.jct.2009.08.010).
Numbers after ± are expanded uncertainties.

Assay: molar enthalpy of transition or fusion
Settings: 298.15 K; Crystal; Flow calorimetry

Q: With `Cc1cccc2c1sc1ccccc12` [4-methyldibenzothiophene] as the molecule, how does the “molar enthalpy of transition or fusion” value read?
A: The value was 21.6 ± 0.335 kcal/mol.
